Measured values taken from PubChem BioAssay (NCI).
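Dose response: 5 concentrations. Exposure: 48 h. Format: 96-well plates. Endpoint: linear interpolation; highest concentration if not reached. TGI denotes the concentration required for complete inhibition of growth.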

Columns and labels:
Experiment in all cases: DTP human tumour cell line panel, 48 h
OVCAR-5 ovarian = system: OVCAR-5 ovarian
COLO 205 colon = system: COLO 205 colon
SF-295 CNS = system: SF-295 CNS
SNB-75 CNS = system: SNB-75 CNS
NCI-H226 lung = system: NCI-H226 lung
SK-MEL-2 melanoma = system: SK-MEL-2 melanoma
OVCAR-8 ovarian = system: OVCAR-8 ovarian
T-47D breast = system: T-47D breast
EKVX NSCLC = system: EKVX NSCLC
MDA-N = system: MDA-N
TK-10 renal = system: TK-10 renal
ACHN renal = system: ACHN renal
BT-549 breast = system: BT-549 breast
U251 CNS = system: U251 CNS
SNB-19 CNS = system: SNB-19 CNS
SW-620 colon = system: SW-620 colon
HOP-92 NSCLC = system: HOP-92 NSCLC
DU-145 prostate = system: DU-145 prostate
MDA-MB-231 breast = system: MDA-MB-231 breast
SK-MEL-5 melanoma = system: SK-MEL-5 melanoma
HT29 colon = system: HT29 colon
SK-MEL-28 melanoma = system: SK-MEL-28 melanoma
PC-3 prostate = system: PC-3 prostate
A549 NSCLC = system: A549 NSCLC
K-562 leukemia = system: K-562 leukemia
SF-268 CNS = system: SF-268 CNS
SK-OV-3 ovarian = system: SK-OV-3 ovarian
KM12 colon = system: KM12 colon
SF-539 CNS = system: SF-539 CNS
786-0 renal = system: 786-0 renal
HCC-2998 colon = system: HCC-2998 colon
LOX IMVI melanoma = system: LOX IMVI melanoma
MCF7 breast = system: MCF7 breast
IGROV1 ovarian = system: IGROV1 ovarian
UO-31 renal = system: UO-31 renal
MOLT-4 leukemia = system: MOLT-4 leukemia
OVCAR-3 ovarian = system: OVCAR-3 ovarian
HCT-116 colon = system: HCT-116 colon
A498 renal = system: A498 renal
RXF 393 renal = system: RXF 393 renal
SN12C renal = system: SN12C renal
NCI-H522 lung = system: NCI-H522 lung
UACC-257 melanoma = system: UACC-257 melanoma
MDA-MB-435 = system: MDA-MB-435
M14 melanoma = system: M14 melanoma
HOP-62 NSCLC = system: HOP-62 NSCLC
CAKI-1 renal = system: CAKI-1 renal
OVCAR-4 ovarian = system: OVCAR-4 ovarian
NCI-H23 lung = system: NCI-H23 lung
UACC-62 melanoma = system: UACC-62 melanoma
HCT-15 colon = system: HCT-15 colon
NCI-H460 lung = system: NCI-H460 lung
HL-60(TB) leukemia = system: HL-60(TB) leukemia
RPMI-8226 leukemia = system: RPMI-8226 leukemia
CCRF-CEM leukemia = system: CCRF-CEM leukemia
SR leukemia = system: SR leukemia
MALME-3M melanoma = system: MALME-3M melanoma
NCI/ADR-RES ovarian = system: NCI/ADR-RES ovarian
HS 578T breast = system: HS 578T breast

## CCN1CCCc2cc3c(C(F)(F)F)cc(=O)oc3cc21
OVCAR-5 ovarian
  TGI: > 100 µM
COLO 205 colon
  TGI: > 100 µM
SF-295 CNS
  TGI: > 100 µM
SNB-75 CNS
  TGI: 96.7 µM
NCI-H226 lung
  TGI: > 100 µM
SK-MEL-2 melanoma
  TGI: > 100 µM
OVCAR-8 ovarian
  TGI: > 100 µM
T-47D breast
  TGI: > 100 µM
EKVX NSCLC
  TGI: > 100 µM
MDA-N
  TGI: > 100 µM
TK-10 renal
  TGI: > 100 µM
ACHN renal
  TGI: > 100 µM
BT-549 breast
  TGI: > 100 µM
U251 CNS
  TGI: > 100 µM
SNB-19 CNS
  TGI: > 100 µM
SW-620 colon
  TGI: > 100 µM
HOP-92 NSCLC
  TGI: 84 µM
DU-145 prostate
  TGI: > 100 µM
MDA-MB-231 breast
  TGI: > 100 µM
SK-MEL-5 melanoma
  TGI: 72.3 µM
HT29 colon
  TGI: > 100 µM
SK-MEL-28 melanoma
  TGI: > 100 µM
PC-3 prostate
  TGI: 93.1 µM
A549 NSCLC
  TGI: > 100 µM
K-562 leukemia
  TGI: > 100 µM
SF-268 CNS
  TGI: > 100 µM
SK-OV-3 ovarian
  TGI: > 100 µM
KM12 colon
  TGI: > 100 µM
SF-539 CNS
  TGI: > 100 µM
786-0 renal
  TGI: > 100 µM
HCC-2998 colon
  TGI: > 100 µM
LOX IMVI melanoma
  TGI: > 100 µM
MCF7 breast
  TGI: > 100 µM
IGROV1 ovarian
  TGI: > 100 µM
UO-31 renal
  TGI: > 100 µM
MOLT-4 leukemia
  TGI: > 100 µM
OVCAR-3 ovarian
  TGI: > 100 µM
HCT-116 colon
  TGI: > 100 µM
A498 renal
  TGI: > 100 µM
RXF 393 renal
  TGI: 63.2 µM
SN12C renal
  TGI: > 100 µM
NCI-H522 lung
  TGI: > 100 µM
UACC-257 melanoma
  TGI: > 100 µM
MDA-MB-435
  TGI: > 100 µM
M14 melanoma
  TGI: > 100 µM
HOP-62 NSCLC
  TGI: > 100 µM
CAKI-1 renal
  TGI: > 100 µM
OVCAR-4 ovarian
  TGI: > 100 µM
NCI-H23 lung
  TGI: > 100 µM
UACC-62 melanoma
  TGI: > 100 µM
HCT-15 colon
  TGI: > 100 µM
NCI-H460 lung
  TGI: > 100 µM

## CCCCCCCCCC[C@@H](OC(C)=O)[C@@H]1CC[C@@H]([C@@H]2CC[C@@H]([C@@H](O)CC#C/C=C/CCCCCCC[C@@]3(Sc4ccccc4)C[C@H](C)OC3=O)O2)O1
COLO 205 colon
  TGI: > 10 µM
SF-295 CNS
  TGI: > 10 µM
SNB-75 CNS
  TGI: > 10 µM
OVCAR-8 ovarian
  TGI: > 10 µM
T-47D breast
  TGI: > 10 µM
EKVX NSCLC
  TGI: > 10 µM
MDA-N
  TGI: > 10 µM
TK-10 renal
  TGI: > 10 µM
HL-60(TB) leukemia
  TGI: > 10 µM
RPMI-8226 leukemia
  TGI: > 10 µM
CCRF-CEM leukemia
  TGI: > 10 µM
SW-620 colon
  TGI: > 10 µM
DU-145 prostate
  TGI: > 10 µM
MDA-MB-231 breast
  TGI: > 10 µM
SK-MEL-5 melanoma
  TGI: > 10 µM
SR leukemia
  TGI: > 10 µM
HT29 colon
  TGI: > 10 µM
SK-MEL-28 melanoma
  TGI: > 10 µM
PC-3 prostate
  TGI: > 10 µM
A549 NSCLC
  TGI: > 10 µM
K-562 leukemia
  TGI: > 10 µM
SF-268 CNS
  TGI: > 10 µM
SK-OV-3 ovarian
  TGI: > 10 µM
KM12 colon
  TGI: > 10 µM
786-0 renal
  TGI: > 10 µM
HCC-2998 colon
  TGI: > 10 µM
LOX IMVI melanoma
  TGI: > 10 µM
MCF7 breast
  TGI: > 10 µM
IGROV1 ovarian
  TGI: > 10 µM
MOLT-4 leukemia
  TGI: > 10 µM
RXF 393 renal
  TGI: > 10 µM
SN12C renal
  TGI: > 10 µM
UACC-257 melanoma
  TGI: > 10 µM
M14 melanoma
  TGI: > 10 µM
HOP-62 NSCLC
  TGI: > 10 µM
CAKI-1 renal
  TGI: > 10 µM
NCI-H23 lung
  TGI: > 10 µM
UACC-62 melanoma
  TGI: > 10 µM
HCT-15 colon
  TGI: > 10 µM
MALME-3M melanoma
  TGI: > 10 µM

## O=c1[nH]c2cc(C(F)(F)F)ccc2nc1C(F)(F)F
OVCAR-5 ovarian
  TGI: > 100 µM
COLO 205 colon
  TGI: > 100 µM
SF-295 CNS
  TGI: > 100 µM
SNB-75 CNS
  TGI: 93.6 µM
NCI-H226 lung
  TGI: > 100 µM
SK-MEL-2 melanoma
  TGI: 79.3 µM
OVCAR-8 ovarian
  TGI: > 100 µM
T-47D breast
  TGI: > 100 µM
EKVX NSCLC
  TGI: > 100 µM
MDA-N
  TGI: > 100 µM
TK-10 renal
  TGI: > 100 µM
ACHN renal
  TGI: > 100 µM
BT-549 breast
  TGI: > 100 µM
RPMI-8226 leukemia
  TGI: > 100 µM
CCRF-CEM leukemia
  TGI: > 100 µM
U251 CNS
  TGI: > 100 µM
SNB-19 CNS
  TGI: > 100 µM
SW-620 colon
  TGI: > 100 µM
HOP-92 NSCLC
  TGI: 45.2 µM
DU-145 prostate
  TGI: > 100 µM
MDA-MB-231 breast
  TGI: > 100 µM
SK-MEL-5 melanoma
  TGI: 35.7 µM
SR leukemia
  TGI: > 100 µM
HT29 colon
  TGI: > 100 µM
SK-MEL-28 melanoma
  TGI: > 100 µM
PC-3 prostate
  TGI: 97.2 µM
A549 NSCLC
  TGI: > 100 µM
K-562 leukemia
  TGI: > 100 µM
SF-268 CNS
  TGI: > 100 µM
SK-OV-3 ovarian
  TGI: > 100 µM
KM12 colon
  TGI: 71.2 µM
SF-539 CNS
  TGI: 94.6 µM
786-0 renal
  TGI: > 100 µM
HCC-2998 colon
  TGI: > 100 µM
LOX IMVI melanoma
  TGI: > 100 µM
MCF7 breast
  TGI: > 100 µM
IGROV1 ovarian
  TGI: > 100 µM
UO-31 renal
  TGI: > 100 µM
MOLT-4 leukemia
  TGI: > 100 µM
OVCAR-3 ovarian
  TGI: 58 µM
HCT-116 colon
  TGI: > 100 µM
NCI/ADR-RES ovarian
  TGI: > 100 µM
A498 renal
  TGI: > 100 µM
RXF 393 renal
  TGI: 58.2 µM
SN12C renal
  TGI: > 100 µM
NCI-H522 lung
  TGI: 99.1 µM
UACC-257 melanoma
  TGI: 90.6 µM
MDA-MB-435
  TGI: 85.2 µM
M14 melanoma
  TGI: > 100 µM
HOP-62 NSCLC
  TGI: 76.7 µM
CAKI-1 renal
  TGI: 89.9 µM
OVCAR-4 ovarian
  TGI: > 100 µM
NCI-H23 lung
  TGI: 94.2 µM
UACC-62 melanoma
  TGI: > 100 µM
HCT-15 colon
  TGI: > 100 µM
MALME-3M melanoma
  TGI: > 100 µM
NCI-H460 lung
  TGI: > 100 µM

## CC(=O)OCC1OC(N2C(c3ccccc3)=CC(c3cccs3)C(C#N)=C2S)C(OC(C)=O)C(OC(C)=O)C1OC(C)=O (centres undefined)
OVCAR-5 ovarian
  TGI: > 100 µM
COLO 205 colon
  TGI: > 100 µM
SF-295 CNS
  TGI: > 100 µM
SNB-75 CNS
  TGI: > 100 µM
SK-MEL-2 melanoma
  TGI: > 100 µM
T-47D breast
  TGI: > 100 µM
MDA-N
  TGI: > 100 µM
TK-10 renal
  TGI: > 100 µM
ACHN renal
  TGI: > 100 µM
CCRF-CEM leukemia
  TGI: > 100 µM
U251 CNS
  TGI: > 100 µM
SNB-19 CNS
  TGI: > 100 µM
DU-145 prostate
  TGI: > 100 µM
MDA-MB-231 breast
  TGI: > 100 µM
PC-3 prostate
  TGI: > 100 µM
A549 NSCLC
  TGI: > 100 µM
SF-268 CNS
  TGI: > 100 µM
SK-OV-3 ovarian
  TGI: > 100 µM
KM12 colon
  TGI: > 100 µM
SF-539 CNS
  TGI: > 100 µM
786-0 renal
  TGI: > 100 µM
HCC-2998 colon
  TGI: > 100 µM
LOX IMVI melanoma
  TGI: > 100 µM
MCF7 breast
  TGI: > 100 µM
IGROV1 ovarian
  TGI: > 100 µM
HS 578T breast
  TGI: > 100 µM
UO-31 renal
  TGI: > 100 µM
MOLT-4 leukemia
  TGI: > 100 µM
OVCAR-3 ovarian
  TGI: > 100 µM
HCT-116 colon
  TGI: > 100 µM
NCI/ADR-RES ovarian
  TGI: > 100 µM
A498 renal
  TGI: 42.9 µM
RXF 393 renal
  TGI: > 100 µM
SN12C renal
  TGI: > 100 µM
UACC-257 melanoma
  TGI: > 100 µM
M14 melanoma
  TGI: > 100 µM
CAKI-1 renal
  TGI: > 100 µM
NCI-H23 lung
  TGI: > 100 µM
HCT-15 colon
  TGI: > 100 µM
NCI-H460 lung
  TGI: > 100 µM
